From doi:10.1101/2024.11.09.622828v1 (biorxiv, 2024) come the findings set out here.

Assay [1] deals with LDH-A (lactate dehydrogenase-A). Put plainly: NADH oxidation at […] nm, crude goat liver enzyme. The settings on record: 1.8 mM pyruvate, 5 mM NADH, 50 mM Tris pH 7.6. The format is biochemical, Capra hircus.
Assay [2] has as its target T1, Porcine pancreatic α-amylase (PPA) (Sus scrofa, UniProt P00690).
T1 sequence (P00690 16-511): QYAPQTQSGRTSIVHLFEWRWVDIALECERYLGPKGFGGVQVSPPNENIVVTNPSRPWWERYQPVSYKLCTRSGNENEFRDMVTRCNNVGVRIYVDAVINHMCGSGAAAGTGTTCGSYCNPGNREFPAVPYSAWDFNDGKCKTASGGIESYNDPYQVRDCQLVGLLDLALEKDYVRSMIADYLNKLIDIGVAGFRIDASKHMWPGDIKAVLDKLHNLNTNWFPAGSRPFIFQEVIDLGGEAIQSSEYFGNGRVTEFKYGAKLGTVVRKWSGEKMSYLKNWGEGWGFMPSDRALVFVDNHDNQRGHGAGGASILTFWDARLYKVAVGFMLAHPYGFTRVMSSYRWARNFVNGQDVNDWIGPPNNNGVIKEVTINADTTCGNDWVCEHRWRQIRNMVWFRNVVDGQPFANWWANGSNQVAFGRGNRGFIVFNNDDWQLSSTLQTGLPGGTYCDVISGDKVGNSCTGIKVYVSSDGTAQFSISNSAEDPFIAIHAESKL
Nature of the assay: DNS reducing sugar assay, […] nm. The format is biochemical.

pIC50: −log10 of the molar value.

`O=c1c(O)c(-c2ccc(O)c(O)c2)oc2cc(O)cc(O)c12` [Q, Quercetin] gave a pIC50 in assay [1] of 5.38.

With `O=c1c(O)c(-c2cc(O)c(O)c(O)c2)oc2cc(O)cc(O)c12` [M, Myricetin], in assay [2], the pIC50 is 4.62.

Compound `O=C1C[C@@H](c2ccc(O)c(O)c2)Oc2cc(O)cc(O)c21` [E, Eriodictyol] showed a pIC50 in assay [2] of 4.66.
